Assay results taken from patent US10815505B2, “Microbial oil extracted from stramenopiles” (priority 2009, dated 2020).
Several values for one entry are separate records, joined by “and”; a condition that tells them apart may be missing. Equal values may be shown once. Read-outs that look alike come from different tables or passages of the source.

Assays:
[1] = system: Saccharomyces cerevisiae (pYES2/CT, mock); test: Mock (pYES2/CT) introduced yeast, GC analysis of fatty acids; format: cell-based; conditions: 100 × product/(product + substrate)
Method: By using a plasmid containing the full length of the P. pyriformis-derived Δ12 desaturase gene as a template, a PCR was performed with primers Pry-F (SEQ ID NO: 60 in the Sequence Listing) and Pyr-R (SEQ ID NO: 61 in the Sequence Listing), using a PrimeSTAR GC polymerase kit (Takara Bio). The PCR added a HindIII restriction enzyme site and an XbaI restriction enzyme site at the both ends. The amplified fragments were incorporated in a pGEM-T-Easy vector (Promega), and sequence analysis was performed. […] As a result, a Δ12 desaturase gene expression vector pYpΔ12Des was constructed. […] For peaks that caused troubles in the analyses, the fatty acids were analyzed after picolinyl esterification, using the same apparatuses and columns under the temperature condition 240° C.→(2.5° C./min)→260° C. […]
In order to verify that the Δ12 desaturase was encoded by the acquired gene, an expression vector was constructed, and an expression experiment was conducted using a budding yeast S. cerevisiae (Invitrogen) as a host. […] The conversion efficiency from oleic acid to linoleic acid was 23.5±1.23%, as calculated according to the following equation. […]

[2] = system: T. aureum-derived Δ5 desaturase; format: cell-based, Thraustochytrium aureum; conditions: S. cerevisiae expressing TauΔ5des, (product × 100)/(substrate + product)
Method: In order to verify that the acquired gene was Δ5 desaturase, overexpression experiment was conducted using a budding yeast S. cerevisiae as a host. First, the acquired gene was incorporated at the EcoRI/XhoI site of a yeast vector pYES2/CT (Invitrogen) to construct an expression vectorpYΔ5des. The constructed expression vector pY5Δdes was then introduced into S. cerevisiae, and GC analysis was performed after extracting and methylating the transfectant fatty acids obtained by using the lithium acetate technique. A gas chromatograph GC-2014 (Shimadzu Corporation) was used for the GC analysis, which was performed under the following conditions. Column: HR-SS-10 (30 m×0.25 mm; Shinwa Chemical Industries Ltd.), column temperature: 150° C.→(5° C./min)→220° C. (10 min), carrier gas: He (1.3 mL/min). GC-17A and GCMS-QP-5000 (Shimadzu Corporation) were used for GC-MS analysis, which was performed using a DB-1 capillary column (0.25 mmi.d.×30 m, film thickness 0.25 μm; Agilent) under the following conditions: column temperature 160° C.→(4° C./min)→260° C., injector port temperature 250° C. For peaks that caused troubles in the analyses, the fatty acids were analyzed after picolinyl esterification, using the same apparatuses and columns under the temperature condition 240° C.→(2.5° C./min)→260° C. (15 min)→(2.5° C./min)→280° C.

[3] = system: Thraustochytrium aureum-derived Δ5 desaturase; test: Fatty acid composition of Δ5 desaturase-introduced Aurantiochytrium sp. mh0186 (mhΔ5neo^r), GC analysis; format: cell-based; conditions: host mh0186; 0.1 mM ETA (to EPA) or DGLA (to AA) in medium
Method: The transformed clone obtained in Example 6, (3), v. was cultured for 3 days, and mhneo^r and mhΔ5neo^r were analyzed by GC analysis after extracting the fatty acid methyl ester. Separately, 0.1 mM ETA or DGLA, exogenous fatty acids used as a substrate by Δ5 desaturase, was added to medium for incorporation into Labyrinthula, and GC analysis was performed after extracting the fatty acids as in the overexpression experiment using yeast. A gas chromatograph GC-2014 (Shimadzu Corporation) was used for the GC analysis, which was performed under the following conditions. Column: HR-SS-10 (30 m×0.25 mm; Shinwa Chemical Industries Ltd.), column temperature: 150° C.→(5° C./min)→220° C. (10 min), carrier gas: He (1.3 mL/min).
ETA or DGLA used as a substrate by Δ5 desaturase was also added to medium at 0.1 mM for incorporation into Labyrinthula. As a result, the precursor substances converted into EPA and AA in Labyrinthula, and the content increased, as observed in the Δ5 desaturase expression experiment using yeast (Tables 9 and 10). […] This experiment was repeated in three or more confirmatory experiments to confirm reproducibility. All experiments produced the same results.

[4] = system: A. limacinum wild-type strain; test: G418 resistance on PDA agar plate, wild-type strain; format: cell-based, Aurantiochytrium limacinum mh0186; conditions: 25° C., 2 days
Method: (§1) The transfectants were cultured in 0.5 mg/ml G418-containing GY liquid medium. The wild-type strain was cultured in GY liquid medium containing no G418. The culture fluids of these strains were spotted in 10-μl portions on PDA agar plate media containing G418 (0, 0.2, 0.5, 1, 2, 4 mg/ml), and growth on the agar plate media was observed after culturing the cells at 25° C. for 2 days. It was found as a result that the proliferation was inhibited at 0.2 mg/ml G418 in the wild-type strain, whereas the transfectants proliferated even in the presence of 4 mg/ml G418 (FIG. 13A). Further, there was no change in G418 resistance, and proliferation was observed even at a G418 concentration of 32 mg/ml in a similar experiment conducted with PDA agar plate media containing G418 (0, 2, 4, 8, 16, 32 mg/ml) after subculturing the transfectants five times in a GY liquid medium containing no G418 (FIG. 13B).

[5] = system: A. limacinum transfectants; test: G418 resistance on PDA agar plate, ub-Neo^r transfectants; format: cell-based, Aurantiochytrium limacinum mh0186
Method: as §1

CCCCCC/C=C\CCCCCCCC(=O)O [16:1^Δ9]
Conversion efficiency (%) [1]: 0%

CCCCC/C=C\C/C=C\CCCCCCCC(=O)O [18:2^Δ9,12, linoleic acid]
Percentage of substrate converted (%) [2]: 0.0%

CC/C=C\C/C=C\C/C=C\CCCCCCCC(=O)O [18:3^Δ9,12,15, α-linolenic acid]
Percentage of substrate converted (%) [2]: 0.0%

CCCCC/C=C\C/C=C\C/C=C\CCCCCCC(=O)O [DGLA, dihomo-γ-linolenic acid]
Conversion efficiency of the precursor substance in Labyrinthula [3]: 63% and 62.9% | Percentage of substrate converted (%) [2]: 27% | Percentage of substrate converted (%) ([2]; listed as C20:3n-6 Dihomo-g-linolenic acid (DGLA)): 27.0%

CN[C@@H]1[C@@H](O)[C@@H](O[C@@H]2[C@@H](O)[C@H](O[C@H]3O[C@H]([C@@H](C)O)[C@@H](O)[C@H](O)[C@H]3N)[C@@H](N)C[C@H]2N)OC[C@]1(C)O [G418]
G418 concentration at which proliferation was inhibited [4]: 0.2 mg/mL | G418 concentration at which proliferation was still observed ([5]; PDA agar plate, 25° C., 2 days, highest tested 4 mg/ml): 4 mg/mL | G418 concentration at which proliferation was still observed ([5]; after subculturing five times without G418, highest tested 32 mg/ml): 32 mg/mL

Eicosadienoic acid [C20:2n-6 Eicosadienoic acid]
Percentage of substrate converted (%) [2]: 0.0%

Eicosatrienoic acid [C20:3n-3 Eicosatrienoic acid]
Percentage of substrate converted (%) [2]: 0.0%

eicosatetraenoic acid [ETA]
Conversion efficiency of the precursor substance in Labyrinthula [3]: 75% and 75.2% | Percentage of substrate converted (%) [2]: 32% | Percentage of substrate converted (%) ([2]; listed as C20:4n-3 Eicosatetraenoic acid (ETA)): 32.0%
